Assay results: patent US20160199371A1, “PHARMACEUTICAL COMPOSITION HAVING PYRIMIDINE COMPOUND AS ACTIVE INGREDIENT” (ASTELLAS PHARMA INC, priority 2013, published 2016)

Legend:
human recombinant FGFR4 = molecular target: T1, human recombinant FGFR4 (Homo sapiens, UniProt P22455); assay: FGFR4 enzyme assay; assay type: biochemical; conditions: test compound 10 nM; read-out: FGFR4 Kinase Activity Inhibitory Rate
T1 construct: purchased CARNA BIOSCIENCES; Inc. 08CBS-0716C
Protocol: The outline of the measurement method is shown below.
Into a well of a 384-well plate,
(1) 4 μL of a compound solution was added,
(2) 2 μL of an FGFR4 enzyme (3 ng/μL) diluted with a reaction buffer was added,
(4) the mixture was allowed to undergo a reaction at room temperature for 30 minutes (concentration of the test compound species during assay of 10 nM).
(5) 15 μL/well of a 20 mM EDTA solution was added thereto to stop the reaction, and then in a LabChip EZ Reader (Perkin Elmer), the amount of a phosphorylated substrate peptide produced by the kinase reaction of FGFR4 was measured.

[1] = test system: FGF19 gene amplification-positive liver cancer cell (HuH-7); assay: Antitumor test using mouse model subcutaneously transplanted with HuH-7 cells; assay type: in vivo, nude mice; conditions: 1 mg/kg/day oral once daily
Protocol: HuH-7 cells at 3×10^6 cells/0.1 mL (solution suspended in PBS and Matrigel at 1:1) was subcutaneously transplanted to nude mice (CanN.Cg-Foxn1 nu/CrlCrlj(nu/nu): Charles River Laboratories Japan, Inc., male, 4-5 week old). After about 3 weeks after the transplantation, the mice were grouped according to the tumor volumes and body weights. […] The test compound was made into a suspension using a 0.5% aqueous methyl cellulose solution and orally administered once a day daily. […] For the tumor volume, a short diameter and long diameter were measured using a calipers, and the tumor volume was calculated by (tumor volume mm^3)=(short diameter mm×short diameter mm×long diameter mm)/2. […] The tumor growth inhibitory rate of test compound was calculated by <the tumor growth inhibitory rate (%)>=<1−(increase in the tumor volume of the test compound-administered group/increase in the tumor volumes of the control group)>×100. The increase in the tumor volume was calculated by (increase in the tumor volume)=(the tumor volume on the final day of each group)−(the tumor volume on the 0th day of each group).

HuH-7 cell = assay: Growth assay of FGF19 gene amplification-positive liver cancer cell (HuH-7); assay type: cell-based; conditions: Homo sapiens, Huh-7, 120 h; test compound 37 nM, 5 days; read-out: HuH-7 Cell Growth Inhibitory Rate
Protocol: After 5 days from the addition of the test compound solution, the number of HuH-7 cells were measured with ARVO×3 (Perkin Elmer) using a CellTiter-Glo Luminescent Cell Viability Assay (Promega). […] That is, the inhibitory rate was calculated by <the growth inhibitory rate (%)>=<1−(the measured value of the well to which the test compound was added>−<the measured value of the well to which the cells were not added (only medium present)>)/{<the measured value of the well to which the test compound was not added (only DMSO was added)>−<the measured value of the well to which the cells were not added (only medium present)}]×100.

[2] = test system: surgically unresectable liver cancer; conditions: extension from 7.9 months; N Engl J Med. 2008; cited from earlier work

T1 sequence (P22455 22-802): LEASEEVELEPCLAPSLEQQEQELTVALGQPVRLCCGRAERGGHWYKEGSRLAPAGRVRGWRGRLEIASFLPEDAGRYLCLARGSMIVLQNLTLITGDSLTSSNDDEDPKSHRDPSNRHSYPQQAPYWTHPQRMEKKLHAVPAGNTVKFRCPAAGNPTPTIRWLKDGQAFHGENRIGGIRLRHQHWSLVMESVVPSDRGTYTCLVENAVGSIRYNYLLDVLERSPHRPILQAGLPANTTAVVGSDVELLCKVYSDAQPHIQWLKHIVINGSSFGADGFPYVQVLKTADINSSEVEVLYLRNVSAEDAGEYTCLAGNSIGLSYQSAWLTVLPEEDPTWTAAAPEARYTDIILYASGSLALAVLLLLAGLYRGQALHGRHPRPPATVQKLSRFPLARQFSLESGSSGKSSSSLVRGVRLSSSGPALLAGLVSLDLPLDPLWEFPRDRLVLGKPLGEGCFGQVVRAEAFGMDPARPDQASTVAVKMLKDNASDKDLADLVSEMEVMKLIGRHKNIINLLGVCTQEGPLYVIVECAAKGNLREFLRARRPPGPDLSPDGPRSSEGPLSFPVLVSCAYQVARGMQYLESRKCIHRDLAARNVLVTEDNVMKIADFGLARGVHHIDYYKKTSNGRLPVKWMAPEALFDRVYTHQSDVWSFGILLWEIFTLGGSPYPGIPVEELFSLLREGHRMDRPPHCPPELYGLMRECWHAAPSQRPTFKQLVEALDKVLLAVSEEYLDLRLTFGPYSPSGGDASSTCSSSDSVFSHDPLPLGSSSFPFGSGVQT

Row | inhibition at 0.01 µM (human recombinant FGFR4) | Compound | Tumor growth inhibitory rate ([1]; final day 10th day) | inhibition at 0.037 µM (HuH-7 cell) | survival [2] | Tumor growth inhibitory rate ([1]; final day 9th day)
1 | 82% | COc1cc(OC)c(F)c(COc2cnc(Nc3ccc(N4CCN(C)CC4)cc3)nc2)c1F [Compound D, 5-[(2,6-difluoro-3,5-dimethoxybenzyl)oxy]-N-[4-(4-methylpiperazin-1-yl)phenyl]pyrimidin-2-amine] | 67% | 65% | – | –
2 | – | CNC(=O)c1cc(Oc2ccc(NC(=O)Nc3ccc(Cl)c(C(F)(F)F)c3)cc2)ccn1 [sorafenib] | – | – | 10.7 months | –
3 | 78% | COc1cc(Nc2ncc(OCc3c(F)c(OC)cc(OC)c3F)cn2)ccc1N1CCC(N2CCN(C)CC2)CC1 [Compound A, 5-[(2,6-difluoro-3,5-dimethoxybenzyl)oxy]-N-{3-methoxy-4-[4-(4-methylpiperazin-1-yl)piperidin-1-yl]phenyl}pyrimidin-2-amine] | 80% | 53% | – | –
4 | 31% | COc1cc(OC)c(F)c(COc2cnc(Nc3cc(CN4CCN(C)CC4)n(C)n3)nc2)c1F [Compound E, 5-[(2,6-difluoro-3,5-dimethoxybenzyl)oxy]-N-{1-methyl-5-[(4-methylpiperazin-1-yl)methyl]-1H-pyrazol-3-yl}pyrimidin-2-amine] | – | 11% | – | 44%
